Data reported in patent US20110065788A1, “AQUEOUS FORMULATIONS OF (2-HYDROXYMETHYL-INDANYL-4-OXY)-PHENYL-4,4,4-TRIFLUOROBUTANE-1-SULFONATE” (BAYER SCHERING PHARMA AKTIENGESELLSCHAFT, priority 2002, published 2011).
≈ marks a conversion by molar mass, not a printed value.

Test: solubility in water
Type: physicochemical
Conditions: 25° C.

With `O=S(=O)(CCCC(F)(F)F)Oc1cccc(Oc2cccc3c2C[C@H](CO)C3)c1` [Compound (I), (−)-(R)-3-(2-Hydroxymethylindanyl-4-oxy)phenyl 4,4,4-trifluorobutane-1-sulfonate] the solubility was 2 µg/mL (≈ 4.65 µM).
